Tested on: 935938-334-R-J1-PDC spheroids with HUVEC/MSC, viability
Experiment: Anticancer human tumor 935938-334-R-J1-PDC patient-derived small intestine adenocarcinoma cell line growth inhibition [PI3K]
Details: for IC50: curve of first compound; for viability, T/C: stronger effect = lower value
Procedure, shortened: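 Multi-cell spheroids combine tumor cells with HUVEC and human MSCs, treated with targeted agents alone or with inavolisib, alpelisib, duvelisib or copanlisib. Concentrations fall in half-log steps from at or near clinical Cmax, or from 10 microM where Cmax is unknown; viability read-out.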

[1] = second compound 0.00316 µM, first compound 0.0316 µM
[2] = second compound 0.00316 µM, first compound 0.1 µM
[3] = second compound 0.00316 µM, first compound 0.316 µM
[4] = second compound 0.00316 µM, first compound 1 µM
[5] = second compound 0.00316 µM, first compound 3.16 µM
[6] = second compound 0.00316 µM, first compound 10 µM
[7] = second compound 0.01 µM, first compound 0.0316 µM
[8] = second compound 0.01 µM, first compound 0.1 µM
[9] = second compound 0.01 µM, first compound 0.316 µM
[10] = second compound 0.01 µM, first compound 1 µM
[11] = second compound 0.01 µM, first compound 3.16 µM
[12] = second compound 0.01 µM, first compound 10 µM
[13] = second compound 0.0316 µM, first compound 0.0316 µM
[14] = second compound 0.0316 µM, first compound 0.1 µM
[15] = second compound 0.0316 µM, first compound 0.316 µM
[16] = second compound 0.0316 µM, first compound 1 µM
[17] = second compound 0.0316 µM, first compound 3.16 µM
[18] = second compound 0.0316 µM, first compound 10 µM
[19] = second compound 0.1 µM, first compound 0.0316 µM
[20] = second compound 0.1 µM, first compound 0.1 µM
[21] = second compound 0.1 µM, first compound 0.316 µM
[22] = second compound 0.1 µM, first compound 1 µM
[23] = second compound 0.1 µM, first compound 3.16 µM
[24] = second compound 0.1 µM, first compound 10 µM
[25] = second compound 0.316 µM, first compound 0.0316 µM
[26] = second compound 0.316 µM, first compound 0.1 µM
[27] = second compound 0.316 µM, first compound 0.316 µM
[28] = second compound 0.316 µM, first compound 1 µM
[29] = second compound 0.316 µM, first compound 3.16 µM
[30] = second compound 0.316 µM, first compound 10 µM
[31] = second compound 1 µM, first compound 0.0316 µM
[32] = second compound 1 µM, first compound 0.1 µM
[33] = second compound 1 µM, first compound 0.316 µM
[34] = second compound 1 µM, first compound 1 µM
[35] = second compound 1 µM, first compound 3.16 µM
[36] = second compound 1 µM, first compound 10 µM
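Further: compound exposure lasted seven days before viability was read.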
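Wherever viability, T/C is given: percent of vehicle DMSO treated spheroid viability so 100% = untreated.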

SMILES: C#Cc1c(F)ccc2cc(O)cc(-c3ncc4c(N5CC6CCC(C5)N6)nc(OCC56CCCN5CC(F)C6)nc4c3F)c12 (stereo not given) + COc1c(OCCCN2CCOCC2)ccc2c3n(c(=NC(=O)c4cnc(N)nc4)nc12)CCN3
- IC50 (second compound 0.00316 µM): 5090 nM
- IC50 (second compound 0.01 µM): 2250 nM
- IC50 (second compound 0.0316 µM): 586 nM
- IC50 (second compound 0.1 µM): 81.8 nM
- IC50 (second compound 0.316 µM): < 31.6 nM
- IC50 (second compound 1 µM): < 31.6 nM
- viability, T/C [1]: 97.9%
- viability, T/C [2]: 91.9%
- viability, T/C [3]: 75.3%
- viability, T/C [4]: 70.9%
- viability, T/C [5]: 57%
- viability, T/C [6]: 40.7%
- viability, T/C [7]: 101%
- viability, T/C [8]: 86.4%
- viability, T/C [9]: 103%
- viability, T/C [10]: 65.2%
- viability, T/C [11]: 46.5%
- viability, T/C [12]: 29.2%
- viability, T/C [13]: 66.4%
- viability, T/C [14]: 72.4%
- viability, T/C [15]: 53.6%
- viability, T/C [16]: 44.4%
- viability, T/C [17]: 31%
- viability, T/C [18]: 22.5%
- viability, T/C [19]: 57.5%
- viability, T/C [20]: 46.2%
- viability, T/C [21]: 39.9%
- viability, T/C [22]: 23%
- viability, T/C [23]: 24.2%
- viability, T/C [24]: 21.8%
- viability, T/C [25]: 34.4%
- viability, T/C [26]: 29.5%
- viability, T/C [27]: 27.7%
- viability, T/C [28]: 25.1%
- viability, T/C [29]: 25.6%
- viability, T/C [30]: 19.9%
- viability, T/C [31]: 27.3%
- viability, T/C [32]: 30.4%
- viability, T/C [33]: 34.1%
- viability, T/C [34]: 24.6%
- viability, T/C [35]: 22.2%
- viability, T/C [36]: 23.9%

SMILES: C=CC(=O)N1CCN(c2nc(=O)n(-c3c(C)ccnc3C(C)C)c3nc(-c4c(O)cccc4F)c(F)cc23)C(C)C1 (stereo not given) + COc1c(OCCCN2CCOCC2)ccc2c3n(c(=NC(=O)c4cnc(N)nc4)nc12)CCN3
- IC50 (second compound 0.00316 µM): > 10000 nM
- IC50 (second compound 0.01 µM): > 10000 nM
- IC50 (second compound 0.0316 µM): > 10000 nM
- IC50 (second compound 0.1 µM): 2400 nM
- IC50 (second compound 0.316 µM): < 31.6 nM
- IC50 (second compound 1 µM): < 31.6 nM
- viability, T/C [1]: 94%
- viability, T/C [2]: 108%
- viability, T/C [3]: 93.9%
- viability, T/C [4]: 91%
- viability, T/C [5]: 104%
- viability, T/C [6]: 109%
- viability, T/C [7]: 100%
- viability, T/C [8]: 96%
- viability, T/C [9]: 92.5%
- viability, T/C [10]: 94.9%
- viability, T/C [11]: 102%
- viability, T/C [12]: 93.2%
- viability, T/C [13]: 93.1%
- viability, T/C [14]: 83.5%
- viability, T/C [15]: 86.7%
- viability, T/C [16]: 71.7%
- viability, T/C [17]: 82.7%
- viability, T/C [18]: 65.9%
- viability, T/C [19]: 56.9%
- viability, T/C [20]: 47.5%
- viability, T/C [21]: 61.2%
- viability, T/C [22]: 49.3%
- viability, T/C [23]: 67%
- viability, T/C [24]: 33%
- viability, T/C [25]: 32.7%
- viability, T/C [26]: 31.7%
- viability, T/C [27]: 34.5%
- viability, T/C [28]: 34.7%
- viability, T/C [29]: 28.1%
- viability, T/C [30]: 32.9%
- viability, T/C [31]: 29.3%
- viability, T/C [32]: 38.8%
- viability, T/C [33]: 38.5%
- viability, T/C [34]: 33%
- viability, T/C [35]: 32.5%
- viability, T/C [36]: 44.1%

SMILES: CC(Cn1ccc(-c2ccc(C#N)c(Cl)c2)n1)NC(=O)c1cc(C(C)O)[nH]n1 (stereo not given) + COc1c(OCCCN2CCOCC2)ccc2c3n(c(=NC(=O)c4cnc(N)nc4)nc12)CCN3
- IC50 (second compound 0.00316 µM): > 10000 nM
- IC50 (second compound 0.01 µM): > 10000 nM
- IC50 (second compound 0.0316 µM): > 10000 nM
- IC50 (second compound 0.1 µM): 1020 nM
- IC50 (second compound 0.316 µM): < 31.6 nM
- IC50 (second compound 1 µM): < 31.6 nM
- viability, T/C [1]: 98%
- viability, T/C [2]: 87.8%
- viability, T/C [3]: 84.1%
- viability, T/C [4]: 89.2%
- viability, T/C [5]: 121%
- viability, T/C [6]: 107%
- viability, T/C [7]: 97.6%
- viability, T/C [8]: 95.2%
- viability, T/C [9]: 88.1%
- viability, T/C [10]: 77.2%
- viability, T/C [11]: 99.4%
- viability, T/C [12]: 78.7%
- viability, T/C [13]: 75.8%
- viability, T/C [14]: 61.2%
- viability, T/C [15]: 88.5%
- viability, T/C [16]: 79%
- viability, T/C [17]: 89.1%
- viability, T/C [18]: 67.1%
- viability, T/C [19]: 40.6%
- viability, T/C [20]: 57.2%
- viability, T/C [21]: 54.6%
- viability, T/C [22]: 49.9%
- viability, T/C [23]: 41.2%
- viability, T/C [24]: 33%
- viability, T/C [25]: 36.6%
- viability, T/C [26]: 35.6%
- viability, T/C [27]: 29.5%
- viability, T/C [28]: 36%
- viability, T/C [29]: 33.9%
- viability, T/C [30]: 30.8%
- viability, T/C [31]: 35.8%
- viability, T/C [32]: 39%
- viability, T/C [33]: 43.6%
- viability, T/C [34]: 39.9%
- viability, T/C [35]: 31.4%
- viability, T/C [36]: 28.9%

SMILES: CC1(C)CCC(Nc2ncc(C(F)(F)F)c(-c3c[nH]c4c(P(C)(C)=O)c(C#N)ccc34)n2)CN1 (stereo not given) + COc1c(OCCCN2CCOCC2)ccc2c3n(c(=NC(=O)c4cnc(N)nc4)nc12)CCN3
- IC50 (second compound 0.00316 µM): < 31.6 nM
- IC50 (second compound 0.01 µM): < 31.6 nM
- IC50 (second compound 0.0316 µM): < 31.6 nM
- IC50 (second compound 0.1 µM): < 31.6 nM
- IC50 (second compound 0.316 µM): < 31.6 nM
- IC50 (second compound 1 µM): < 31.6 nM
- viability, T/C [1]: 47.8%
- viability, T/C [2]: 35.4%
- viability, T/C [3]: 35%
- viability, T/C [4]: 33%
- viability, T/C [5]: 37.3%
- viability, T/C [6]: 8.87%
- viability, T/C [7]: 40.9%
- viability, T/C [8]: 34.9%
- viability, T/C [9]: 30.1%
- viability, T/C [10]: 34.6%
- viability, T/C [11]: 29.6%
- viability, T/C [12]: 8.72%
- viability, T/C [13]: 30.4%
- viability, T/C [14]: 35.4%
- viability, T/C [15]: 33.1%
- viability, T/C [16]: 27.5%
- viability, T/C [17]: 34.2%
- viability, T/C [18]: 6.35%
- viability, T/C [19]: 35%
- viability, T/C [20]: 22.9%
- viability, T/C [21]: 20.2%
- viability, T/C [22]: 23.8%
- viability, T/C [23]: 25.7%
- viability, T/C [24]: 6.52%
- viability, T/C [25]: 25%
- viability, T/C [26]: 21%
- viability, T/C [27]: 22.8%
- viability, T/C [28]: 22.1%
- viability, T/C [29]: 23.3%
- viability, T/C [30]: 4.96%
- viability, T/C [31]: 18.2%
- viability, T/C [32]: 24.7%
- viability, T/C [33]: 15.8%
- viability, T/C [34]: 24.9%
- viability, T/C [35]: 19%
- viability, T/C [36]: 3.4%

SMILES: Cn1nccc1Nc1nccc(-c2ccn(C(CO)c3ccc(Cl)c(F)c3)c(=O)c2)n1 (stereo not given) + COc1c(OCCCN2CCOCC2)ccc2c3n(c(=NC(=O)c4cnc(N)nc4)nc12)CCN3
- IC50 (second compound 0.00316 µM): 1380 nM
- IC50 (second compound 0.01 µM): 1500 nM
- IC50 (second compound 0.0316 µM): 566 nM
- IC50 (second compound 0.1 µM): < 31.6 nM
- IC50 (second compound 0.316 µM): < 31.6 nM
- IC50 (second compound 1 µM): < 31.6 nM
- viability, T/C [1]: 81.5%
- viability, T/C [2]: 99.5%
- viability, T/C [3]: 54.7%
- viability, T/C [4]: 58.4%
- viability, T/C [5]: 41.4%
- viability, T/C [6]: 25.2%
- viability, T/C [7]: 85.7%
- viability, T/C [8]: 77.8%
- viability, T/C [9]: 68.9%
- viability, T/C [10]: 55.6%
- viability, T/C [11]: 39.9%
- viability, T/C [12]: 28%
- viability, T/C [13]: 58.8%
- viability, T/C [14]: 76.7%
- viability, T/C [15]: 49.2%
- viability, T/C [16]: 46.1%
- viability, T/C [17]: 33.5%
- viability, T/C [18]: 28%
- viability, T/C [19]: 49.4%
- viability, T/C [20]: 39.6%
- viability, T/C [21]: 40.1%
- viability, T/C [22]: 28%
- viability, T/C [23]: 18.1%
- viability, T/C [24]: 20.6%
- viability, T/C [25]: 36.4%
- viability, T/C [26]: 32%
- viability, T/C [27]: 22.3%
- viability, T/C [28]: 22.4%
- viability, T/C [29]: 21.7%
- viability, T/C [30]: 23%
- viability, T/C [31]: 34.6%
- viability, T/C [32]: 27%
- viability, T/C [33]: 25.1%
- viability, T/C [34]: 23.9%
- viability, T/C [35]: 19.5%
- viability, T/C [36]: 17.9%
